Measured values from ChEMBL document CHEMBL1156829 (Proc Natl Acad Sci U S A, 2008).
Square brackets hold non-standard residues; d marks the D form. Peptide text beside a SMILES is read from it. * marks the point of attachment. NHCH2CH2OH = OCCN*; For = O=C*

How the values were obtained:
[1] = test system: Plasmodium falciparum; assay: NOVARTIS: Inhibition of Plasmodium falciparum 3D7 (drug-susceptible) proliferation in erythrocyte-based infection assay; assay type: functional, organism-based; conditions: Plasmodium falciparum, 3D7
[2] = NOVARTIS: Cytotoxicity against human hepatocellular carcinoma cell line (Huh7); assay type: toxicity, cell-based, Huh-7; conditions: Huh7 cells (hepatocellular carcinoma cell line)
[3] = test system: Plasmodium falciparum; assay: NOVARTIS: Inhibition of Plasmodium falciparum W2 (drug-resistant) proliferation in erythrocyte-based infection assay; assay type: functional, organism-based; conditions: Plasmodium falciparum, W2; read-out: EC50

| Structure (SMILES) | EC50 [1] | CC50 [2] | EC50 [3] |
| --- | --- | --- | --- |
| CC(C)C[C@@H](NC(=O)[C@H](C)NC(=O)CNC(=O)[C@@H](NC=O)C(C)C)C(=O)N[C@@H](C)C(=O)N[C@@H](C(=O)N[C@H](C(=O)N[C@@H](C(=O)N[C@@H](Cc1c[nH]c2ccccc12)C(=O)N[C@H](CC(C)C)C(=O)N[C@@H](Cc1c[nH]c2ccccc12)C(=O)N[C@H](CC(C)C)C(=O)N[C@@H](Cc1c[nH]c2ccccc12)C(=O)N[C@H](CC(C)C)C(=O)N[C@@H](Cc1c[nH]c2ccccc12)C(=O)NCCO)C(C)C)C(C)C)C(C)C (For-VGA[dL]A[dV]V[dV]W[dL]W[dL]W[dL]W-NHCH2CH2OH) | 2890 nM | 98800 nM | 2990 nM |
| COc1cccc(C(NC(=O)c2ccccc2)c2ccc3cccnc3c2O)c1 (centres undefined) | 134 nM | > 100000 nM | 216 nM |
| O=C(NCCCN1CCCC1=O)c1ccc2nc(N3CCOCC3)sc2c1 | 7240 nM | 26800 nM | 4690 nM |
| COc1ccc(-c2csc(Nc3cccc(Cl)c3C)n2)cc1OC | 8210 nM | > 89300 nM | 355 nM |
| O=C1CN(C(=O)CCC2CCCCC2)C(c2ccccc2)c2cc(F)ccc2N1 (centres undefined) | 1070 nM | 33200 nM | 1300 nM |
| CCC(c1nc2ccccc2c(=O)n1-c1ccc(Cl)cc1)N(Cc1ccccc1)C(=O)Nc1c(C(C)C)cccc1C(C)C (centres undefined) | > 1420 nM | > 10000 nM | 26.7 nM |
| CN(CCCNc1ccnc2cc(Cl)ccc12)S(=O)(=O)c1ccc2ccccc2c1 | 282 nM | > 5540 nM | 200 nM |
| CC(C)c1ccc(C2N(c3ccccc3)C3(C(=O)c4ccccc4C3=O)C(c3ccc(C(C)C)cc3)C23C(=O)c2ccccc2C3=O)cc1 (centres undefined) | 802 nM | > 10000 nM | 792 nM |
| CCCN1CCc2c(sc3nc(SCC(=O)OC)nc(N)c23)C1 | 1660 nM | > 100000 nM | 710 nM |
| OCCNc1nc(Nc2ccccc2O)nc2ccccc12 | 1860 nM | 58700 nM | 2470 nM |
| COc1cc(NC(C)CCCN(Cc2ccc(F)cc2)C(=O)C(c2ccccc2)c2ccccc2)c2ncccc2c1 (centres undefined) | > 1090 nM | > 3470 nM | < 0.572 nM |
| CCOc1ccc(CN(C(=O)COc2ccc(Cl)cc2)C(C)CCCN(CC)CC)cc1 (centres undefined) | 387 nM | 18900 nM | 1320 nM |
| CCN(CC)CCCC(C)Nc1cc(/C=C/c2ccccc2Cl)nc2cc(Cl)ccc12 (centres undefined) [AMINOQUINOL] | 178 nM | > 10000 nM | 283 nM |
| Cc1ccc(CNC(=O)c2cc(=O)[nH]c3ccc(S(=O)(=O)N4CCOCC4)cc23)cc1 | 1430 nM | > 10000 nM | > 1090 nM |
| COc1cccc(NC(=O)N(Cc2ccccc2)C(C)c2nc3ccccc3c(=O)n2-c2cc(C)ccc2OC)c1 (centres undefined) | 1240 nM | > 10000 nM | 1220 nM |
| O=C(O)/C=C\C(=O)N(C1CCCCC1)C1CCCCC1 | > 1250 nM | > 10000 nM | > 708 nM |
| COCCNCCN1CCN(c2ccc(C)cc2)C[C@@H]1c1ccccc1 | 436 nM | 11200 nM | 548 nM |
| COc1cc(NC(C)CCCN(Cc2ccc(OC)c(OC)c2)C(=O)c2ccccc2)c2ncccc2c1 (centres undefined) | 529 nM | > 10000 nM | 103 nM |
| Cc1cc(NCCN2CCCCC2)c2ccc3ccccc3c2n1 | 44.1 nM | 15600 nM | 81 nM |
| Cc1ccc(NC(=O)N2CCN(C(=O)c3nc(-c4ccccc4)nc(C)c3C(=O)OC(C)C)CC2C)c(C)c1 (centres undefined) | > 271 nM | > 10000 nM | 336 nM |
| Cc1cccc(OCC(=O)NCCNC2=NS(=O)(=O)c3ccccc32)c1 | > 1120 nM | > 10000 nM | 1680 nM |
| Cc1ccc(-c2cc3nc4c(c(O)n3n2)CCCC4)cc1 | 1600 nM | > 100000 nM | 2100 nM |

| Structure (SMILES) | EC50 [1] | CC50 [2] | EC50 [3] |
| --- | --- | --- | --- |
| O=C(Nc1ccc(C(c2ccccc2)(c2ccccc2)c2ccc(NC(=O)c3cccc([N+](=O)[O-])c3)cc2)cc1)c1cccc([N+](=O)[O-])c1 | > 1250 nM | > 10000 nM | 1680 nM |
| Cc1cc(C)cc(C(=O)Nc2c3c(nn2-c2cccc(C)c2C)CS(=O)(=O)C3)c1 | 329 nM | > 10000 nM | 358 nM |
| COc1ccc(C2C(C(=O)OC3CCCCC3)=C(C)Nc3nnnn32)cc1 (centres undefined) | > 10000 nM | > 74100 nM | > 11200 nM |
| O=[N+]([O-])c1ccc(NCCNc2nc(N3CCCC3)nc3ccccc23)cc1 | 564 nM | 19200 nM | 334 nM |
| O=c1c2c3c(sc2ncn1CC1CCCCC1)CC(NCc1cccnc1)CC3 (centres undefined) | > 1040 nM | > 10000 nM | > 1250 nM |
| O=C(Nc1ccc2c(c1)OCO2)c1cc2cc(C3(O)CCN(CCCc4ccccc4)CC3)ccc2o1 | 912 nM | 6320 nM | 1180 nM |
| CCCNC1=C(c2ccc(OC)cc2)C(=O)c2ccccc21 | 3380 nM | > 100000 nM | 754 nM |
| COc1ccccc1NC(=O)CSc1nc2cccnc2n1-c1ccccc1OC | 833 nM | > 10000 nM | 848 nM |
| CCCN1CCC(N2C[C@@H](NC3CCCCCCC3)C[C@H]2C(=O)NCCc2ccc3c(c2)OCO3)CC1 | > 1360 nM | > 10000 nM | > 1300 nM |
| CCC(=O)OC(C(C)C(=O)O)C(C)C1OC2(CCC(C)(C3CCC(C)(C4OC(C5OC(O)(CO)C(C)CC5C)CC4C)O3)O2)CC(O)C1C (centres undefined) | 379 nM | > 6250 nM | 387 nM |
| COc1ccccc1NC1=CC(=NS(=O)(=O)c2ccccc2)c2ccccc2C1=O | 224 nM | 13600 nM | 288 nM |
| CC(=NNC(=O)/C(=C\c1ccc([N+](=O)[O-])cc1)NC(=O)c1ccccc1)c1ccccn1 | 343 nM | > 100000 nM | 169 nM |
| CCCOC(=O)C1=C(C)NC2=C(C(=O)CC(c3ccc(OC)c(OC)c3)C2)C1c1ccc(Cl)c(Cl)c1 (centres undefined) | 143 nM | 52600 nM | 49.2 nM |
| COc1ccc(C(C)=O)cc1N1C(=O)C2C(C1=O)C1(c3ccccc3)C(=O)C2(c2ccccc2)C(c2ccc(C)cc2)=C1c1ccc(C)cc1 (centres undefined) | 2460 nM | > 100000 nM | 1800 nM |
| CCOc1ccc(/C=C(/C#N)c2nc3ccccc3[nH]2)cc1OC | 1500 nM | > 10000 nM | 405 nM |
| COc1ccc(-c2cc(-c3ccc(C)cc3)[nH]n2)c(O)c1 | 1520 nM | 25600 nM | 198 nM |
| CC[C@H](C)C[C@H]1CC[C@](O)([C@](C)(O)C(=O)N[C@@H]2C(=O)N3NCCC[C@@H]3C(=O)N(O)[C@@H](C)C(=O)NCC(=O)N3NCCC[C@H]3C(=O)N(O)[C@H](C)C(=O)O[C@H]2C(C)C)O[C@@H]1C | 438 nM | 465 nM | 567 nM |
| CCOC(=O)c1c(NC(=O)CSc2nnc(CNC(=O)c3cccs3)n2-c2ccccc2OC)sc2c1CCC2 | > 619 nM | > 10000 nM | > 982 nM |
| CCOc1ccccc1-n1c(C(C)N(Cc2ccccc2)C(=O)Nc2ccccc2OC)nc2ccccc2c1=O (centres undefined) | 484 nM | > 6650 nM | 397 nM |
| COc1ccc(CNCc2cc(-c3ccnc4cc(Cl)ccc34)ccc2O)c(OC)c1 | 951 nM | 59200 nM | 38.3 nM |
| Clc1ccc(C[n+]2cc(-c3ccccc3)n3c2CCC3)cc1Cl | 499 nM | > 55700 nM | 158 nM |
